In the supplement of paper PMC4862054:

How the values were obtained:
Settings in all cases: incubation time: 72 h
[1] = test system: CAL-51; test: normalised viability (% of control), CellTiter-Blue; higher = more viable cells (about 100 = DMSO control)
How it was run: (§1)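 Breast cancer cell lines in 20 µl suspension were seeded onto 384-well plates pre-loaded with compound dissolved in 5 µl medium, then incubated 72 h. CellTiter-Blue reagent (2.5 µl) was added for 2 h at 37 °C and fluorescence read at 560/590 nm. Each plate was normalised to vehicle (100) and a positive kill control (0), with Z'-factor quality control. The value is normalised viability at one listed concentration of the series.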

[2] = test system: DU-4475; test: as above
How it was run: as §1

[3] = test system: MFM-223; test: as above
How it was run: as §1

[4] = test system: MDA-MB-436; test: as above
How it was run: as §1

[5] = test system: BT-474; test: as above
How it was run: as §1

[6] = test system: SK-BR-3; test: as above
How it was run: as §1

[7] = test system: HDQ-P1; test: as above
How it was run: as §1

[8] = test system: HCC1143; test: as above
How it was run: as §1

[9] = test system: MDA-MB-453; test: as above
How it was run: as §1

[10] = test system: BT-549; test: as above
How it was run: as §1

[11] = test system: CAL-120; test: as above
How it was run: as §1

[12] = test system: MDA-MB-468; test: as above
How it was run: as §1

[13] = test system: HCC1599; test: as above
How it was run: as §1

[14] = test system: CAL-85-1; test: as above
How it was run: as §1

[15] = test system: Hs578T; test: as above
How it was run: as §1

[16] = test system: HCC1937; test: as above
How it was run: as §1

[17] = test system: CAL-148; test: as above
How it was run: as §1

[18] = test system: MDA-MB-231; test: as above
How it was run: as §1

[19] = test system: MFM-223; test: as above; remark: listed apart in the source
How it was run: as §1

[20] = test system: MDA-MB-453; test: as above; remark: listed apart in the source
How it was run: as §1

[21] = test system: BT-549; test: as above; remark: listed apart in the source
How it was run: as §1

[22] = test system: CAL-148; test: as above; remark: listed apart in the source
How it was run: as §1

[23] = test system: CAL-120; test: drug sensitivity score (DSS), CellTox Green (DSS (AUC-based score)); higher = stronger drug effect (viability inhibition or cytotoxicity); extreme values may be limits of the assay
How it was run: (§2)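 Breast cancer cell lines, seeded as 20 µl suspension, were incubated 72 h with compound in 384-well plates at 5 concentrations in 10-fold steps over a 10,000-fold range set for each compound. Fluorescence from CellTox Green was read at 485/520 nm before CellTiter-Glo luminescence, which was read after 10 min at room temperature. Every plate was normalised to 0.1 % DMSO and a positive kill control, and the drug sensitivity score was taken from the area under the fitted dose-response curve.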

[24] = test system: CAL-148; test: as above
How it was run: as §2

CO[C@H]1/C=C\C=C(/C)C(=O)NC2=CC(=O)C(NCCN(C)C)=C(C[C@@H](C)C[C@H](OC)[C@H](O)[C@@H](C)/C=C(\C)[C@@H]1OC(N)=O)C2=O [Alvespimycin]
Settings | normalised viability [%]
[1], 0.3 nM | 97
[1], 3 nM | 96
[1], 10 nM | 86.8
[2], 0.3 nM | 99
[2], 3 nM | 93.1
[2], 10 nM | 84.5
[3], 1 nM | 97.4
[3], 100 nM | 27.3
[3], 1000 nM | 23.4
[4], 1 nM | 90.9
[4], 100 nM | 28.9
[4], 1000 nM | 20.4
[5], 1 nM | 116
[5], 100 nM | 28.3
[5], 1000 nM | 27.8
[6], 1 nM | 97.7
[6], 100 nM | 19
[6], 1000 nM | 16.3
[7], 0.3 nM | 99.3
[7], 3 nM | 102
[7], 10 nM | 112
[8], 1 nM | 103
[8], 100 nM | 46.8
[8], 1000 nM | 37.7
[9], 0.3 nM | 115
[9], 3 nM | 87.4
[9], 10 nM | 61.7
[10], 1 nM | 104
[10], 100 nM | 33.5
[10], 1000 nM | 21.2
[11], 1 nM | 108
[11], 100 nM | 26.7
[11], 1000 nM | 17.4
[12], 1 nM | 111
[12], 100 nM | 44.6
[12], 1000 nM | 29.3
[13], 1 nM | 72.9
[13], 100 nM | 43
[13], 1000 nM | 31.3
[14], 0.3 nM | 111
[14], 3 nM | 85.5
[14], 10 nM | 95.1
[15], 1 nM | 102
[15], 100 nM | 43.6
[15], 1000 nM | 40.1
[16], 1 nM | 110
[16], 100 nM | 40.7
[16], 1000 nM | 29
[17], 0.3 nM | 107
[17], 3 nM | 102
[17], 10 nM | 101
[18], 1 nM | 99
[18], 100 nM | 35.2
[18], 1000 nM | 28.3
[19], 10 nM | 58.3
[20], 1 nM | 93.4
[21], 10 nM | 43.2
[22], 1 nM | 109

Settings | drug sensitivity score
[23] | 0.117
[24] | 9.12

CCC1(c2ccc(N)cc2)CCC(=O)NC1=O (stereo not given) [Aminoglutethimide]
Settings | normalised viability [%]
[1], 3 nM | 87.2
[1], 30 nM | 92.6
[1], 100 nM | 92.8
[2], 3 nM | 107
[2], 30 nM | 86.9
[2], 100 nM | 85.2
[3], 10 nM | 97
[3], 1000 nM | 102
[3], 10000 nM | 97.5
[4], 10 nM | 95.9
[4], 1000 nM | 112
[4], 10000 nM | 91.6
[5], 10 nM | 107
[5], 1000 nM | 104
[5], 10000 nM | 105
[6], 10 nM | 99.1
[6], 1000 nM | 100
[6], 10000 nM | 109
[7], 3 nM | 84.8
[7], 30 nM | 99.2
[7], 100 nM | 103
[8], 10 nM | 124
[8], 1000 nM | 115
[8], 10000 nM | 122
[9], 3 nM | 94.9
[9], 30 nM | 93
[9], 100 nM | 89.2
[10], 10 nM | 84.2
[10], 1000 nM | 101
[10], 10000 nM | 76.4
[11], 10 nM | 111
[11], 1000 nM | 116
[11], 10000 nM | 108
[12], 10 nM | 97.3
[12], 1000 nM | 103
[12], 10000 nM | 110
[13], 10 nM | 90.8
[13], 1000 nM | 92.7
[13], 10000 nM | 95.3
[14], 3 nM | 104
[14], 30 nM | 89.6
[14], 100 nM | 103
[15], 10 nM | 95.8
[15], 1000 nM | 113
[15], 10000 nM | 89.8
[16], 10 nM | 93.3
[16], 1000 nM | 92.9
[16], 10000 nM | 83.4
[17], 3 nM | 108
[17], 30 nM | 105
[17], 100 nM | 106
[18], 10 nM | 86.9
[18], 1000 nM | 90.2
[18], 10000 nM | 106
[19], 100 nM | 97
[20], 10 nM | 86.3
[21], 100 nM | 73.2
[22], 10 nM | 99.1

Settings | drug sensitivity score
[23] | 0
[24] | 0

Cn1c(CCCC(=O)O)nc2cc(N(CCCl)CCCl)ccc21 [Bendamustine]
Settings | normalised viability [%]
[1], 3 nM | 111
[1], 30 nM | 105
[1], 100 nM | 111
[2], 3 nM | 90
[2], 30 nM | 102
[2], 100 nM | 101
[3], 10 nM | 96.2
[3], 1000 nM | 87.4
[3], 10000 nM | 93.5
[4], 10 nM | 94.7
[4], 1000 nM | 70.4
[4], 10000 nM | 116
[5], 10 nM | 127
[5], 1000 nM | 120
[5], 10000 nM | 105
[6], 10 nM | 108
[6], 1000 nM | 109
[6], 10000 nM | 85
[7], 3 nM | 105
[7], 30 nM | 119
[7], 100 nM | 109
[8], 10 nM | 107
[8], 1000 nM | 104
[8], 10000 nM | 97.8
[9], 3 nM | 125
[9], 30 nM | 108
[9], 100 nM | 106
[10], 10 nM | 107
[10], 1000 nM | 101
[10], 10000 nM | 101
[11], 10 nM | 89.5
[11], 1000 nM | 86.7
[11], 10000 nM | 93.4
[12], 10 nM | 107
[12], 1000 nM | 95
[12], 10000 nM | 82.3
[13], 10 nM | 115
[13], 1000 nM | 105
[13], 10000 nM | 114
[14], 3 nM | 91.2
[14], 30 nM | 94.8
[14], 100 nM | 100
[15], 10 nM | 110
[15], 1000 nM | 127
[15], 10000 nM | 97.7
[16], 10 nM | 55.3
[16], 1000 nM | 85.7
[16], 10000 nM | 93.7
[17], 3 nM | 99.8
[17], 30 nM | 112
[17], 100 nM | 106
[18], 10 nM | 102
[18], 1000 nM | 96.1
[18], 10000 nM | 91
[19], 100 nM | 102
[20], 10 nM | 112
[21], 100 nM | 109
[22], 10 nM | 108

Settings | drug sensitivity score
[23] | 0
[24] | 0

C=C(c1ccc(C(=O)O)cc1)c1cc2c(cc1C)C(C)(C)CCC2(C)C [Bexarotene]
Settings | normalised viability [%]
[1], 3 nM | 82
[1], 30 nM | 88.7
[1], 100 nM | 88.5
[2], 3 nM | 98.7
[2], 30 nM | 102
[2], 100 nM | 103
[3], 10 nM | 101
[3], 1000 nM | 103
[3], 10000 nM | 96.5
[4], 10 nM | 90.1
[4], 1000 nM | 97.2
[4], 10000 nM | 81
[5], 10 nM | 103
[5], 1000 nM | 95.7
[5], 10000 nM | 97.7
[6], 10 nM | 100
[6], 1000 nM | 89.8
[6], 10000 nM | 83.1
[7], 3 nM | 89.3
[7], 30 nM | 84.9
[7], 100 nM | 102
[8], 10 nM | 123
[8], 1000 nM | 117
[8], 10000 nM | 104
[9], 3 nM | 91
[9], 30 nM | 91.3
[9], 100 nM | 74.5
[10], 10 nM | 89.5
[10], 1000 nM | 75.6
[10], 10000 nM | 74.5
[11], 10 nM | 101
[11], 1000 nM | 108
[11], 10000 nM | 106
[12], 10 nM | 108
[12], 1000 nM | 100
[12], 10000 nM | 110
[13], 10 nM | 81.2
[13], 1000 nM | 72.2
[13], 10000 nM | 82.1
[14], 3 nM | 94.9
[14], 30 nM | 91.6
[14], 100 nM | 92
[15], 10 nM | 99
[15], 1000 nM | 105
[15], 10000 nM | 75.3
[16], 10 nM | 82.3
[16], 1000 nM | 82.2
[16], 10000 nM | 82.1
[17], 3 nM | 110
[17], 30 nM | 92.7
[17], 100 nM | 99.8
[18], 10 nM | 91.2
[18], 1000 nM | 86.5
[18], 10000 nM | 105
[19], 100 nM | 87.4
[20], 10 nM | 92
[21], 100 nM | 73.2
[22], 10 nM | 101

Settings | drug sensitivity score
[23] | 0
[24] | 0
